Results reported in patent US12297434B1, “Biomarker for predicting drug resistance of bruton's tyrosine kinase inhibitors and application thereof” (Beijing Friendship Hospital, Capital Medical University, priority 2024, dated 2025).

How the values were obtained:
Format in all cases: cell-based, Human
[1] = test system: SUDHL2-R cells (zebutinib-resistant ABC-DLBCL cell line); assay: CCK8 cell viability, zebutinib on SUDHL2-R
Description: (§1) Human ABC-DLBCL cell lines (SUDHL2, U2932 and OCI-LY10) are purchased from American Type Culture Collection (ATCC) cell bank. The BTK inhibitor-resistant ABC-DLBCL-R cell line is constructed according to the drug concentration gradient increment method, and the BTK inhibitor used in the present disclosure is zebutinib. […] All the patients were diagnosed according to the 2016 revision of the WHO classification of lymphoid neoplasms. Before the study, written informed consent was obtained from each patient and healthy volunteer.
(§2) The drug concentration gradient is used to induce zebutinib resistance to BTK inhibitor in ABC-DLBCL cell lines (SUDHL2, U2932 and OCI-LY10). Tumor cells in the logarithmic growth phase are taken, and zebutinib at a starting concentration of 2 micromoles per liter (μmol/L) (about 1/10 of the IC50 of the parental cell line) is added to act for 24 hours (h). […]
(§3) Cell activity is measured using a cell counting kit-8 (CCK-8, Dojindo, Japan). […] The absorbance at 450 nm is measured by ELX808 microplate spectrophotometer (BioTekInstruments, Winooski, VT, USA). Colony formation experiment: cells are inoculated into a 6-well plate with 500 cells per well, three copies in one group, and cultured for 10-14 days to form colonies, followed by […] in formaldehyde and staining with crystal violet, and the visible colonies are counted. […]

OCI-LY10 cells = assay: CCK8 cell viability, zebutinib on OCI-LY10; details: parental ABC-DLBCL cell line OCI-LY10, CCK8 method; read-out: half maximal inhibitory concentration (IC50)
Description: as §1, §2, §3

[2] = test system: U2932-R cells (zebutinib-resistant ABC-DLBCL cell line); assay: CCK8 cell viability, zebutinib on U2932-R
Description: as §1, §2, §3

U2932 cells = assay: CCK8 cell viability, zebutinib on U2932; details: parental ABC-DLBCL cell line U2932, CCK8 method; read-out: half maximal inhibitory concentration (IC50)
Description: as §1, §2, §3

SUDHL2 cells = assay: CCK8 cell viability, zebutinib on SUDHL2; details: parental ABC-DLBCL cell line SUDHL2, CCK8 method; read-out: half maximal inhibitory concentration (IC50)
Description: as §1, §2, §3

[3] = test system: OCI-LY10-R cells (zebutinib-resistant ABC-DLBCL cell line); assay: CCK8 cell viability, zebutinib on OCI-LY10-R
Description: as §1, §2, §3

IC50 ([1]; drug-resistant cell line SUDHL2-R, CCK8 method, read-out: half maximal inhibitory concentration (IC50)): 90.3 µM
IC50 ([3]; drug-resistant cell line OCI-LY10-R, CCK8 method, read-out: half maximal inhibitory concentration (IC50)): 118 µM
Compound: C=CC(=O)N1CCC([C@@H]2CCNc3c(C(N)=O)c(-c4ccc(Oc5ccccc5)cc4)nn32)CC1 [zebutinib]
resistance index (RI) ([1]; RI=IC50 of drug-resistant cell line/IC50 of parental cell line, SUDHL2-R vs SUDHL2): 5.28
IC50 (OCI-LY10 cells): 22.5 µM
resistance index (RI) ([2]; RI=IC50 of drug-resistant cell line/IC50 of parental cell line, U2932-R vs U2932): 5.14
IC50 ([2]; drug-resistant cell line U2932-R, CCK8 method, read-out: half maximal inhibitory concentration (IC50)): 144 µM
IC50 (U2932 cells): 28 µM
IC50 (SUDHL2 cells): 17.1 µM
resistance index (RI) ([3]; RI=IC50 of drug-resistant cell line/IC50 of parental cell line, OCI-LY10-R vs OCI-LY10): 5.23
